Data as given in US7534558B2, “In vitro diagnostic test for enterovirus infections” (Universite de Lille 2 Droit Et Sante, priority 2003, dated 2009).
Entries after “also recorded” stand apart in the source; their conditions may differ.

Tests used:
[1] = system: anti-VP4 antibodies in plasmas or serums; experiment: ELISA of plasmas/serums on wells coated with VP4 protein or VP4 peptides; assay type: binding, human; settings: for OD in ELISA assay compared with the VP4 protein: 40 serums from patients and 40 controls; for Mean value of OD ratio (OD / OD of negative control), ELISA: diluted 1/50, antigen coated at 5 μg/ml, 490 nm
Description: 40 plasmas from non diabetic patients and 40 plasmas or serums from diabetic patients were assayed.
The VP4 protein or the 5 VP4 peptides, diluted at 5 μg/ml in PBS buffer pH=7.4, are coated in the wells of a microplate of 96 wells (FluoroMunc, MaxiSorp surface, NUNC, Danemark) at the rate of 100 μl/well. The plates are incubated for 1 hour at 37° C. under humid atmosphere, then left for 24 h at room temperature. After 3 washings with PBS buffer, the wells are saturated with 300 μl of saturation buffer for 1 hour at 37° C. under humid atmosphere, before washing 3 times with the washing buffer. Then 250 μl of post-coating buffer are added to each well and the plates are incubated for 24 h at room temperature, then stored at 4° C. until use.
The wells coated with the VP4 protein or the different peptides VP4 are washed 3 times with washing buffer in order to remove the post-coating solution. Then 100 μl of the plasmas or serums diluted to 1/50th in dilution buffer are added to different wells and the plates are incubated for 1 hour at 37° C. under humid atmosphere. Simultaneously, a negative control well containing 100 μl of dilution buffer is carried out. Then the wells are washed 3 times with the washing solution and 100 μl of secondary antibody solution are added to each well. After incubation for 1 h at 37° C. under humid atmosphere, the wells are washed 5 times with the washing solution and 100 μl of substrate solution are added to each well. The plates are incubated for 30 minutes at room temperature and in the dark. The coloured reaction is stopped by addition of 25 μl of H2SO4 2M (1M) per well and the plates are read in a plate reader at a wavelength of 490 nm.
ODs obtained for each serum with the VP4 protein and the different peptides VP4 were divided by the OD obtained with the negative control. The following Tables show the mean +/− standard deviation of the rates of OD obtained with the two series of assayed serums (Patient=diabetic patients, Control=not diabetic). (see FIGS. 8 à 10)

[2] = system: CVB4E2/plasma induced IFNα production by PBMCs; experiment: CVB4E2/plasma induced IFNα production by PBMCs (DELFIA); assay type: cell-based, human
Description: (§1) VP4, H antigen or mock proteins were preincubated for 1 h at 37° C. at different concentrations with plasma from 5 healthy subjects diluted at optimal dilution (1/10 or 1/100 ). CVB3 or CVB4 were then added for 1 hour before incubating with PBMCs. […] On the contrary, the mock proteins isolated from non-infected Hep-2 cells have non effect on the IFNα production.
PBMCs separated from whole heparinated blood are distributed into microwells (plate of 96 wells), at the rate of 5 to 8.10^5 cell in 100 μl of supplemented RPMI medium by well. The infection of PBMC is made with a final volume of 100 μl of preparation in each well. After incubation for 48 h at 37° C. under a 5% CO2 atmosphere and 90% humidity, the supernatant is harvested and used immediately for IFNα dosage, or clarified by centrifugation for 10 minutes at 180×g and stored at −80° C. until dosage of the produced IFNα.
(§2) The concentration of the produced IFNα is determined with a sensitive and specific technique, the DELFIA method (Dissociation Enhanced Lanthanide FluoroImmmoAssay) (Rönnblom and al 1997).
(§3) The dosage of IFNα is performed following the DELFIA principle (Dissociation Enhanced Lanthanide FluoroImmunoAssay), based on a immunofluorescence in retarded phase method using antibodies binding IFNα of which one is labelled with europium. The use of an activation solution will release the europium conjugated with antibodies and emit a fluorescence proportional to the amount of produced IFNα and measured with a fluorometer (fluorometer LKB Wallac 1230 ARCOSO®, Turku, Finlande).
Monoclonal anti-IFNα antibodies LT 273 (5.4 mg/ml) and LT 293 (4.8 mg/ml) supplied by Dr Gunar Alm (Uppsala, Sweden) are coated to the bottom of the wells after an incubation for 12 hours at room temperature. These plates can be stored in a buffer at 4° C. or are used immediately. Standard samples of human IFNα are prepared with an “irrelevant” monoclonal mouse antibody IgG1 in order to establish the reference curve (10 measurements). The other samples to be analysed are added to each well (100 μl) with the dilution buffer and the “irrelevant” antibodies and incubated for 2 hours with gentle stirring at room temperature. The wells are washed 3 times with the washing solution. The antibody conjugated to europium (200 μl) is added to each well, left to incubate for 1 hour at room temperature with gentle stirring. The plate is washed 6 times with a washing solution. The activation solution (200 μl), added immediately after washing and left for 20 to 30 minutes for incubation in the well, causes a cleavage of the europium bound to the antibody fixed to IFNα, emitting a fluorescence measured with the fluorescence reader (LKB Wallac 1230 ARCUS®). The IFNα concentration will be calculated from the values of the measured fluorescence by means of the Graphpad program (San Diego, USA). The detection threshold of IFNα is of 0.5 IU/ml.
The plasma from a healthy donor (optimal dilution 1/10th or 1/100th) is pre-incubated for 1 hour at 37° C. with the recombinant VP4 protein of CVB4E2 (optimal concentration at 1 μg/ml). The whole is incubated again for one hour at 37° C. in the presence of the CVB4E2 virus (dilutions at 1/10th or 1/100th; viral titer at 10^13 TCID50/ml) then applied to the PBMCs, (5.10^5/well) to incubate for 48 hours.
In the same way, the plasma preparation preincubated for 1 hour and VP4 of CVB3 are incubated for 1 hour with CVB4E2 before infecting the PBMCs for 48 hours and determinating the amount of the produced IFNα.
The virus (CVB4E2 or CVB3) infected PBMCs in the presence of plasma are deemed to be positive controls of this experimentation. The negative controls are obtained with one well of PBMC alone, one well of virus CVB4B2 alone and one well of CVB3 alone.
The CVB4E2 induced IFNα production in cultures of PBMCs previously incubated in the presence of plasma from healthy subjects was measured. […]

[3] = system: CVB3/plasma induced IFNα production by PBMCs; experiment: CVB3/plasma induced IFNα production by PBMCs (DELFIA); assay type: cell-based, human; settings: protein preincubated 1 h at 37°C at different concentrations with plasma from healthy subjects, then CVB3, then PBMCs
Description: as §1
PBMCs separated from whole heparinated blood are distributed into microwells (plate of 96 wells), at the rate of 5 to 8.10^5 cell in 100 μl of supplemented RPMI medium by well. The infection of PBMC is made with a final volume of 100 μl of preparation in each well. […]
as §2
as §3, with “Finlande). […]” for “Finlande).”

[4] = Patient = 40 serums of diabetic patients
[5] = Control = 40 serums of non diabetic patients

Compound	OD in ELISA assay compared with the VP4 protein [1]	Mean value of OD ratio (OD / OD of negative control), ELISA [1, 4]	Mean value of OD ratio (OD / OD of negative control), ELISA [1, 5]	also measured
CSCC[C@H](N)C(=O)NCC(=O)N[C@@H](C)C(=O)N[C@@H](CCC(N)=O)C(=O)N[C@H](C(=O)N[C@@H](CO)C(=O)N[C@H](C(=O)N[C@@H](CCC(N)=O)C(=O)N[C@@H](CCCCN)C(=O)N[C@H](C(=O)NCC(=O)N[C@@H](C)C(=O)N[C@@H](Cc1c[nH]cn1)C(=O)N[C@@H](CCC(=O)O)C(=O)N[C@H](C(=O)N[C@@H](CO)C(=O)N[C@@H](CC(C)C)C(=O)N[C@@H](CO)C(=O)N[C@@H](C)C(=O)N[C@@H](CO)C(N)=O)[C@@H](C)O)[C@@H](C)O)[C@@H](C)O)C(C)C [VP4-P1]	comparable to the VP4 protein	1.450	–	–
CC[C@H](C)[C@H](NC(=O)[C@H](CC(N)=O)NC(=O)[C@@H](NC(=O)[C@H](Cc1ccc(O)cc1)NC(=O)[C@H](Cc1c[nH]cn1)NC(=O)[C@@H](NC(=O)[C@@H](NC(=O)[C@H](CO)NC(=O)[C@H](CC(N)=O)NC(=O)CNC(=O)[C@H](CO)NC(=O)[C@H](C)NC(=O)[C@H](CO)NC(=O)[C@H](CC(C)C)NC(=O)[C@H](CO)NC(=O)[C@@H](NC(=O)[C@H](CCC(=O)O)NC(=O)[C@H](Cc1c[nH]cn1)NC(=O)[C@H](C)NC(=O)CN)[C@@H](C)O)[C@@H](C)CC)[C@@H](C)CC)[C@@H](C)O)C(N)=O [VP4-P2]	comparable to the VP4 protein; also recorded: same behaviour as VP4; also recorded: recognizes a higher level of antibodies with diabetics as with non-diabetics	2.373	0.691	effect on IFNα production during infection of PBMCs with CVB4E2 in the presence of plasma ([2]; plasma 1/100th, peptide at three concentrations (FIG. 11, tracks 7 to 9)): diminution of the dose-dependent IFNα production; Mean value of OD ratio (OD / OD of negative control), ELISA ([1]; Patient = 40 serums of diabetic patients, listed as Peptide P2): 2.376
CC[C@H](C)[C@H](NC(=O)[C@H](CC(N)=O)NC(=O)[C@@H](NC(=O)[C@H](Cc1ccc(O)cc1)NC(=O)[C@H](Cc1c[nH]cn1)NC(=O)[C@@H](NC(=O)[C@@H](NC(=O)[C@H](CO)NC(=O)[C@H](CC(N)=O)NC(=O)CN)[C@@H](C)CC)[C@@H](C)CC)[C@@H](C)O)C(=O)N[C@@H](CC(N)=O)C(=O)N[C@@H](Cc1ccc(O)cc1)C(=O)N[C@@H](Cc1ccc(O)cc1)C(=O)N[C@@H](CCCCN)C(=O)N[C@@H](CC(=O)O)C(=O)N[C@@H](C)C(=O)N[C@@H](C)C(=O)N[C@@H](CO)C(=O)N[C@@H](CC(N)=O)C(=O)N[C@@H](CO)C(N)=O [VP4-P3]	–	0.712	–	–
CC(C)[C@H](NC(=O)[C@H](CC(=O)O)NC(=O)[C@H](CCCCN)NC(=O)[C@@H](NC(=O)[C@@H]1CCCN1C(=O)[C@H](CCC(=O)O)NC(=O)[C@@H](NC(=O)[C@H](Cc1ccccc1)NC(=O)[C@H](CCCCN)NC(=O)[C@H](CO)NC(=O)[C@@H]1CCCN1C(=O)[C@H](CC(=O)O)NC(=O)[C@H](CCC(N)=O)NC(=O)[C@@H](NC(=O)[C@H](Cc1ccccc1)NC(=O)[C@H](CC(=O)O)NC(=O)[C@H](CCC(N)=O)NC(=O)[C@H](CCCNC(=N)N)NC(=O)[C@H](CC(N)=O)NC(=O)[C@H](C)NC(=O)[C@H](CO)NC(=O)[C@H](CC(N)=O)NC(=O)[C@H](CO)NC(=O)[C@H](C)NC(=O)[C@H](C)NC(=O)[C@H](CC(=O)O)NC(=O)[C@H](CCCCN)NC(=O)[C@H](Cc1ccc(O)cc1)NC(=O)[C@H](Cc1ccc(O)cc1)NC(=O)[C@@H](N)CC(N)=O)[C@@H](C)O)[C@@H](C)O)C(C)C)C(N)=O [VP4-P5]	–	0.968	–	–
H-SKFTEPVKDVMIKSLPALN-NH2 [VP4-P6, NH2-SKFTEPVKDVMIKSLPALN-CONH2]	–	0.600	–	–
VP4CVB4: natural structural internal protein VP4 dissociated and purified from coxsackievirus CVB4 E2	–	1.964	0.711	effect on CVB3/plasma induced IFNα production [3]: no change; effect on CVB4/plasma induced IFNα production ([2]; protein preincubated 1 h at 37°C at different concentrations with plasma from healthy subjects, then CVB4, then PBMCs): Decrease
